ChEMBL document CHEMBL1141575, “Preparation and in vitro biological evaluation of tetrapyrrole ethanolamide derivatives as potential anticancer agents” (Bioorg Med Chem Lett, 2008)

Experiments:
[1] = Survival of human 2780.9S cells at 10 uM under deem light after 96 hrs by MTT assay relative to control; format: functional; conditions: read-out: Survival
K562 [2] = assay: Survival of human K562 cells at 50 uM under deem light after 96 hrs by MTT assay relative to control; format: functional; conditions: K562, 96 h, read-out: Survival
[3] = Survival of human H209 cells at 100 uM under deem light after 96 hrs by MTT assay relative to control; format: functional; conditions: NCI-H209, 96 h, read-out: Survival
[4] = Survival of human H209 cells at 0.1 uM under deem light after 96 hrs by MTT assay relative to control; format: functional; conditions: NCI-H209, 96 h, read-out: Survival
SiHa [5] = assay: Survival of human SIHA cells at 50 uM under deem light after 96 hrs by MTT assay relative to control; format: functional; conditions: read-out: Survival
[6] = Survival of human 2780.9S cells at 100 uM under deem light after 96 hrs by MTT assay relative to control; format: functional; conditions: read-out: Survival
SiHa [7] = assay: Survival of human SIHA cells at 100 uM under deem light after 96 hrs by MTT assay relative to control; format: functional; conditions: read-out: Survival
[8] = Cytotoxicity against human MDA-MB cells under deem light after 96 hrs by MTT assay; format: functional, cell-based
[9] = Survival of human MDA-MB cells at 0.1 uM under deem light after 96 hrs by MTT assay relative to control; format: functional; conditions: read-out: Survival
Daudi = assay: Cytotoxicity against human Daudi cells under deem light after 96 hrs by MTT assay; format: functional, cell-based
[10] = Photohemolysis in human RBC assessed as concentration required to 50% hemolysis under light exposure for 10 mins; format: ADME, cell-based, Erythrocyte; conditions: human red blood cells, read-out: Activity
[11] = Cytotoxicity against human 2780.9S cells under deem light after 96 hrs by MTT assay; format: functional, cell-based
SiHa [12] = assay: Survival of human SIHA cells at 10 uM under deem light after 96 hrs by MTT assay relative to control; format: functional; conditions: read-out: Survival
NCI-H69 [13] = assay: Survival of human H69 cells at 0.1 uM under deem light after 96 hrs by MTT assay relative to control; format: functional; conditions: NCI-H69, 96 h, read-out: Survival
[14] = Photohemolysis in human RBC assessed as concentration required to 50% hemolysis under light exposure for 5 mins; format: ADME, cell-based, Erythrocyte; conditions: human red blood cells, read-out: Activity
Raji [15] = assay: Survival of human Raji cells at 50 uM under deem light after 96 hrs by MTT assay relative to control; format: functional; conditions: read-out: Survival
HeLa [16] = assay: Survival of human HeLa cells at 50 uM under deem light after 96 hrs by MTT assay relative to control; format: functional; conditions: read-out: Survival
[17] = Survival of human MDA-MB cells at 100 uM under deem light after 96 hrs by MTT assay relative to control; format: functional; conditions: read-out: Survival
NCI-H69 [18] = assay: Cytotoxicity against human H69 cells under deem light after 96 hrs by MTT assay; format: functional, cell-based; conditions: NCI-H69, 96 h
NCI-H69 [19] = assay: Survival of human H69 cells at 1 uM under deem light after 96 hrs by MTT assay relative to control; format: functional; conditions: NCI-H69, 96 h, read-out: Survival
Raji [20] = assay: Survival of human Raji cells at 1 uM under deem light after 96 hrs by MTT assay relative to control; format: functional; conditions: read-out: Survival
K562 [21] = assay: Cytotoxicity against human K562 cells under deem light after 96 hrs by MTT assay; format: functional, cell-based; conditions: K562, 96 h
Raji [22] = assay: Survival of human Raji cells at 0.1 uM under deem light after 96 hrs by MTT assay relative to control; format: functional; conditions: read-out: Survival
NCI-H69 [23] = assay: Survival of human H69 cells at 10 uM under deem light after 96 hrs by MTT assay relative to control; format: functional; conditions: NCI-H69, 96 h, read-out: Survival
HeLa [24] = assay: Survival of human HeLa cells at 1 uM under deem light after 96 hrs by MTT assay relative to control; format: functional; conditions: read-out: Survival
NCI-H69 [25] = assay: Survival of human H69 cells at 100 uM under deem light after 96 hrs by MTT assay relative to control; format: functional; conditions: NCI-H69, 96 h, read-out: Survival
SiHa [26] = assay: Survival of human SIHA cells at 1 uM under deem light after 96 hrs by MTT assay relative to control; format: functional; conditions: read-out: Survival
Raji [27] = assay: Survival of human Raji cells at 10 uM under deem light after 96 hrs by MTT assay relative to control; format: functional; conditions: read-out: Survival
Raji [28] = assay: Cytotoxicity against human Raji cells under deem light after 96 hrs by MTT assay; format: functional, cell-based
SiHa [29] = assay: Cytotoxicity against human SIHA cells under deem light after 96 hrs by MTT assay; format: functional, cell-based
HeLa [30] = assay: Survival of human HeLa cells at 10 uM under deem light after 96 hrs by MTT assay relative to control; format: functional; conditions: read-out: Survival
[31] = Survival of human H209 cells at 50 uM under deem light after 96 hrs by MTT assay relative to control; format: functional; conditions: NCI-H209, 96 h, read-out: Survival
K562 [32] = assay: Survival of human K562 cells at 10 uM under deem light after 96 hrs by MTT assay relative to control; format: functional; conditions: K562, 96 h, read-out: Survival
[33] = Photohemolysis in human RBC at 520 nM under exposure to light for 10 mins; format: ADME, cell-based, Erythrocyte; conditions: human red blood cells, read-out: Activity
HeLa [34] = assay: Cytotoxicity against human HeLa cells under deem light after 96 hrs by MTT assay; format: functional, cell-based
HeLa [35] = assay: Survival of human HeLa cells at 100 uM under deem light after 96 hrs by MTT assay relative to control; format: functional; conditions: read-out: Survival
[36] = Survival of human 2780.9S cells at 50 uM under deem light after 96 hrs by MTT assay relative to control; format: functional; conditions: read-out: Survival
K562 [37] = assay: Survival of human K562 cells at 100 uM under deem light after 96 hrs by MTT assay relative to control; format: functional; conditions: K562, 96 h, read-out: Survival
[38] = Survival of human MDA-MB cells at 10 uM under deem light after 96 hrs by MTT assay relative to control; format: functional; conditions: read-out: Survival
HeLa [39] = assay: Survival of human HeLa cells at 0.1 uM under deem light after 96 hrs by MTT assay relative to control; format: functional; conditions: read-out: Survival
[40] = Photohemolysis in human RBC in absence of light; format: ADME, cell-based; conditions: erythrocyte
[41] = Survival of human 2780.9S cells at 0.1 uM under deem light after 96 hrs by MTT assay relative to control; format: functional; conditions: read-out: Survival
Raji [42] = assay: Survival of human Raji cells at 100 uM under deem light after 96 hrs by MTT assay relative to control; format: functional; conditions: read-out: Survival
[43] = Survival of human MDA-MB cells at 50 uM under deem light after 96 hrs by MTT assay relative to control; format: functional; conditions: read-out: Survival
K562 [44] = assay: Survival of human K562 cells at 0.1 uM under deem light after 96 hrs by MTT assay relative to control; format: functional; conditions: K562, 96 h, read-out: Survival
[45] = Survival of human H209 cells at 10 uM under deem light after 96 hrs by MTT assay relative to control; format: functional; conditions: NCI-H209, 96 h, read-out: Survival
K562 [46] = assay: Survival of human K562 cells at 1 uM under deem light after 96 hrs by MTT assay relative to control; format: functional; conditions: K562, 96 h, read-out: Survival
[47] = Survival of human H209 cells at 1 uM under deem light after 96 hrs by MTT assay relative to control; format: functional; conditions: NCI-H209, 96 h, read-out: Survival
NCI-H69 [48] = assay: Survival of human H69 cells at 50 uM under deem light after 96 hrs by MTT assay relative to control; format: functional; conditions: NCI-H69, 96 h, read-out: Survival
[49] = Survival of human 2780.9S cells at 1 uM under deem light after 96 hrs by MTT assay relative to control; format: functional; conditions: read-out: Survival
[50] = Survival of human MDA-MB cells at 1 uM under deem light after 96 hrs by MTT assay relative to control; format: functional; conditions: read-out: Survival

Compound: C=Cc1c(C)c2cc3nc(c4c5[nH]c(cc6nc(cc1[nH]2)C(C)=C6CC)c(C)c5C(=O)[C@@H]4C(=O)OC)[C@@H](CCC(=O)OC)[C@@H]3C [METHYL PHEOPHORBIDE A]
- viability at 10 µM [1]: 93.4%
- viability at 50 µM (K562 [2]): 97.3%
- viability at 100 µM [3]: 82.3%
- viability at 0.1 µM [4]: 83.6%
- viability at 50 µM (SiHa [5]): 81%
- viability at 100 µM [6]: 83.2%
- viability at 100 µM (SiHa [7]): 68%
- IC50 [8]: > 100 µM
- viability at 0.1 µM [9]: 128%
- IC50 (Daudi): 25 µM
- HC50 at 10 min [10]: > 525 nM
- IC50 [11]: > 100 µM
- viability at 10 µM (SiHa [12]): 90.8%
- viability at 0.1 µM (NCI-H69 [13]): 70.7%
- HC50 at 5 min [14]: > 525 nM
- viability at 50 µM (Raji [15]): 106%
- viability at 50 µM (HeLa [16]): 48.7%
- viability at 100 µM [17]: 68.9%
- IC50 (NCI-H69 [18]): > 100 µM
- viability at 1 µM (NCI-H69 [19]): 84.3%
- viability at 1 µM (Raji [20]): 102%
- IC50 (K562 [21]): > 100 µM
- viability at 0.1 µM (Raji [22]): 92.9%
- viability at 10 µM (NCI-H69 [23]): 79%
- viability at 1 µM (HeLa [24]): 77.4%
- viability at 100 µM (NCI-H69 [25]): 63.6%
- viability at 1 µM (SiHa [26]): 98%
- viability at 10 µM (Raji [27]): 107%
- IC50 (Raji [28]): > 100 µM
- IC50 (SiHa [29]): > 100 µM
- viability at 10 µM (HeLa [30]): 72.1%
- viability at 50 µM [31]: 85.2%
- viability at 10 µM (K562 [32]): 97.3%
- hemolysis at 10 min, 0.52 µM [33]: 18%
- IC50 (HeLa [34]): 25 µM
- viability at 100 µM (HeLa [35]): 36.7%
- viability at 50 µM [36]: 90.1%
- viability at 100 µM (K562 [37]): 106%
- viability at 10 µM [38]: 103%
- viability at 0.1 µM (HeLa [39]): 89.1%
- Activity [40]: Non-toxic
- viability at 0.1 µM [41]: 100%
- viability at 100 µM (Raji [42]): 94.3%
- viability at 50 µM [43]: 101%
- viability at 0.1 µM (K562 [44]): 86%
- viability at 10 µM [45]: 91.7%
- viability at 1 µM (K562 [46]): 93.3%
- viability at 1 µM [47]: 90.2%
- viability at 50 µM (NCI-H69 [48]): 76.7%
- viability at 1 µM [49]: 94.9%
- viability at 1 µM [50]: 115%
